What was measured:
[1] = system: Oryza sativa, (L.) Tebonnet; assay: Rice tolerance to post-transplant applications under flooded paddy conditions (Example 187), ORYSAT (Rice, Tebonnet); conditions: for ORYSAT: herbicidal effect rating 0-9, three to four weeks after treatment; for herbicidal effect rating, ORYSAT (rice tolerance): rated three to four weeks after treatment
[2] = system: Echinochloa oryzoides (Ard.) Fritsch.; assay: Preemergence weed control under flooded paddy conditions, ECHORC (Watergrass (Calif.)); assay type: in vivo; conditions: preemergence weeds, flooded paddy; for ECHORC: herbicidal effect rating 0-9, three to four weeks after treatment; for herbicidal effect rating, ECHORC: rated three to four weeks after treatment; as to herbicidal effect rating, ECHORC: meaning of each grade not given here
[3] = system: Cyperus serotinus, Rottb.; assay: Preemergence weed control under flooded paddy conditions, CYPSE (Flatsedge); assay type: in vivo; conditions: preemergence weeds; for CYPSE: herbicidal effect rating 0-9, three to four weeks after treatment; for herbicidal effect rating, CYPSE: rated three to four weeks after treatment; as to herbicidal effect rating, CYPSE: meaning of each grade not given here
[4] = system: Monochoria vaginalis, Presl.; assay: Preemergence weed control under flooded paddy conditions, MOOVA (Monochoria); assay type: in vivo; conditions: preemergence weeds, flooded paddy; for MOOVA: herbicidal effect rating 0-9, three to four weeks after treatment; for herbicidal effect rating, MOOVA: rated three to four weeks after treatment; as to herbicidal effect rating, MOOVA: meaning of each grade not given here
Sagittaria pygmaea, L. = assay: Preemergence weed control under flooded paddy conditions, SAGPY (Arrowhead (Pygmaea)); assay type: in vivo; conditions: preemergence weeds, flooded paddy; for SAGPY: herbicidal effect rating 0-9, three to four weeks after treatment; for herbicidal effect rating, SAGPY: rated three to four weeks after treatment; as to herbicidal effect rating, SAGPY: meaning of each grade not given here
Cyperus iria = assay: Preemergence weed control under flooded paddy conditions, CYPIR (Rice Flatsedge); assay type: in vivo; conditions: preemergence weeds, flooded paddy; for CYPIR: herbicidal effect rating 0-9, three to four weeks after treatment; for herbicidal effect rating, CYPIR: rated three to four weeks after treatment; as to herbicidal effect rating, CYPIR: meaning of each grade not given here

| SMILES | ORYSAT ([1]; 0.0320 kg/ha) | ORYSAT ([1]; 0.0620 kg/ha) | ORYSAT ([1]; 0.1250 kg/ha) | ORYSAT ([1]; 0.2500 kg/ha) | ECHORC ([2]; 0.0320 kg/ha) | ECHORC ([2]; 0.0620 kg/ha) | ECHORC ([2]; 0.1250 kg/ha) | ECHORC ([2]; 0.2500 kg/ha) | CYPSE ([3]; 0.0320 kg/ha) | CYPSE ([3]; 0.0620 kg/ha) | CYPSE ([3]; 0.1250 kg/ha) | CYPSE ([3]; 0.2500 kg/ha) | MOOVA ([4]; 0.0320 kg/ha) | MOOVA ([4]; 0.0620 kg/ha) | MOOVA ([4]; 0.1250 kg/ha) | MOOVA ([4]; 0.2500 kg/ha) | SAGPY (Sagittaria pygmaea, L.; 0.0320 kg/ha) | SAGPY (Sagittaria pygmaea, L.; 0.0620 kg/ha) | SAGPY (Sagittaria pygmaea, L.; 0.1250 kg/ha) | SAGPY (Sagittaria pygmaea, L.; 0.2500 kg/ha) | other results |
| --- | --- | --- | --- | --- | --- | --- | --- | --- | --- | --- | --- | --- | --- | --- | --- | --- | --- | --- | --- | --- | --- |
| Cn1c(C(F)(F)F)cc(=O)n(-c2ccc3snc(/C=N/Nc4ccccc4)c3c2)c1=O [Example 408, 1,2-Benzisothiazole-3-carboxaldehyde, 5-[3,6-dihydro-3-methyl-2,6-dioxo-4-(trifluoromethyl)-1(2H)-pyrimidinyl]-, 3-(phenylhydrazone), (E)-] | 0.0 | 2.0 | 2.0 | 3.0 | 2.0 | 3.0 | 6.0 | 7.0 | 0.0 | 0.0 | 5.0 | 6.0 | 7.0 | 9.0 | 9.0 | 9.0 | 0.0 | 0.0 | 4.0 | 6.0 | CYPIR (Cyperus iria; 0.0320 kg/ha): 6.0; CYPIR (Cyperus iria; 0.0620 kg/ha): 9.0; CYPIR (Cyperus iria; 0.1250 kg/ha): 9.0; CYPIR (Cyperus iria; 0.2500 kg/ha): 9.0 |
| Cc1ccc(OCC(=O)OC2C=CCCC2)c(-c2nsc3ccc(-n4c(=O)cc(C(F)(F)F)n(C)c4=O)cc23)c1 (stereo not drawn) [Example 185, 2-Cyclohexen-1-yl {{2-{5-[3,6-dihydro-3-methyl-2,6-dioxo-4-(trifluoromethyl)-1(2H)-pyrimidinyl]-1,2-benzisothiazol-3-yl}-p-tolyl}oxy}acetate] | – | – | – | – | – | – | – | – | – | – | – | – | – | – | – | – | – | – | – | – | herbicidal effect rating, ORYSAT (rice tolerance) ([1]; 0.0315 kg/ha): 0.0; herbicidal effect rating, ORYSAT (rice tolerance) ([1]; 0.0630 kg/ha): 0.0; herbicidal effect rating, ECHORC ([2]; 0.0315 kg/ha): 0.0; herbicidal effect rating, ECHORC ([2]; 0.0630 kg/ha): 0.0; herbicidal effect rating, CYPSE ([3]; 0.0315 kg/ha): 0.0; herbicidal effect rating, CYPSE ([3]; 0.0630 kg/ha): 0.0; herbicidal effect rating, MOOVA ([4]; 0.0315 kg/ha): 9.0; herbicidal effect rating, MOOVA ([4]; 0.0630 kg/ha): 9.0; herbicidal effect rating, SAGPY (Sagittaria pygmaea, L.; 0.0315 kg/ha): 0.0; herbicidal effect rating, SAGPY (Sagittaria pygmaea, L.; 0.0630 kg/ha): 0.0; herbicidal effect rating, CYPIR (Cyperus iria; 0.0315 kg/ha): 0.0; herbicidal effect rating, CYPIR (Cyperus iria; 0.0630 kg/ha): 0.0 |
| Cn1c(C(F)(F)F)cc(=O)n(-c2ccc3snc(COC4CCCCO4)c3c2)c1=O (stereo not drawn) [Example 456, 2,4(1H,3H)-Pyrimidinedione, 1-methyl-3-{3-{[(tetrahydro-2H-pyran-2-yl)oxy]methyl}-1,2-benzisothiazol-5-yl}-6-(trifluoromethyl)-] | 7.0 | 8.0 | 8.0 | 9.0 | 4.0 | 6.0 | 7.0 | 9.0 | 0.0 | 0.0 | 2.0 | 4.0 | 7.0 | 9.0 | 9.0 | 9.0 | 0.0 | 0.0 | 2.0 | 4.0 | CYPIR (Cyperus iria; 0.0320 kg/ha): 0.0; CYPIR (Cyperus iria; 0.0620 kg/ha): 4.0; CYPIR (Cyperus iria; 0.1250 kg/ha): 6.0; CYPIR (Cyperus iria; 0.2500 kg/ha): 6.0 |
